US20040152895A1, “Sulfonamides” (priority 2003, published 2004)

Molecular target: T1, human and rat GPR-14 (UniProt Q9UKP6)
T1 sequence (Q9UKP6 1-389): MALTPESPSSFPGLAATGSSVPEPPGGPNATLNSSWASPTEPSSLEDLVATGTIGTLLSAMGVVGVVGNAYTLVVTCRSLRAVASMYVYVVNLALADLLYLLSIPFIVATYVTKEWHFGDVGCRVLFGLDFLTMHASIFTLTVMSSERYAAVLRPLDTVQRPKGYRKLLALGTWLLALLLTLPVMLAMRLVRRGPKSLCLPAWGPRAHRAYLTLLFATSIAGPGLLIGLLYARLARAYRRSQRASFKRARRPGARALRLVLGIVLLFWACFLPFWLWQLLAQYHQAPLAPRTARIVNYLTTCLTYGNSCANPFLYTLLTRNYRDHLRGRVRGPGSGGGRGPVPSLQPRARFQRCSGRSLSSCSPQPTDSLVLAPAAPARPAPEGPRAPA
Test: Radioligand binding assay ([125I] h-U-II)
Conditions: HEK-293 cell membranes, 200 pM [125I] h-U-II
Protocol: HEK-293 cell membranes containing stable cloned human and rat GPR-14 (20 ug/assay) were incubated with 200 pM [125I] h-U-II (200 Ci/mmol^−1 in the presence of increasing concentrations of test compounds in DMSO (0.1 nM to 10 uM), in a final incubation volume of 200 ul (20 mM Tris-HCl, 5 mM MgCl2). Incubation was done for 30 minutes at room temperature followed by filtration GF/B filters with Brandel cell harvester. ^125I labeled U-II binding was quantitated by gamma counting. Nonspecific binding was defined by ^125I U-II binding in the presence of 100 nM of unlabeled human U-II. Analysis of the data was performed by nonlinear least square fitting.

Ki: 220 nM
SMILES: CCCSc1ncc(S(=O)(=O)Nc2ccc(Cl)c(OCCN(C)C)c2)c(OC)n1 [Example 1, 4-methoxy-2-propylsulfanyl-pyrimidine-5-sulfonic Acid [4-chloro-3-(2-dimethylamino-ethoxy)-phenyl]-amide]
